Target: T1, CDK2 (Homo sapiens, UniProt P24941)
T1 construct: endogenous in cells; host or cells: OVCAR3 cells
Assay: Phospho-RB measurement in OVCAR3 cells (HTRF phospho-RB cellular kit)
Format: cell-based
Conditions: inhibition of RB phosphorylation at S807/811 (HTRF, TR-FRET ratio 665/620), 24 h compound treatment, 0.3 to 10,000 nM
Procedure, shortened: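 IC50 came from a four-parameter logistic fit of the DMSO-normalized TR-FRET ratio (665/620 nm). That ratio reflects RB phosphorylation at S807/811, read with an HTRF antibody pair 4 h after adding lysate at room temperature.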

`CNCCOc1cccc2c1CCN2S(=O)(=O)Nc1cccc(-c2nc(C(C)(C)C)sc2-c2ccnc(NC3CCN(S(C)(=O)=O)CC3)n2)c1F` [Example 181, N-(3-(2-(tert-butyl)-5-(2-((1-(methylsulfonyl)-piperidin-4-yl)amino)-pyrimidin-4-yl)thiazol-4-yl)-2-fluoro-phenyl)-4-(2-(methylamino)-ethoxy)-indoline-1-sulfonamide] and `CN(C)CCOc1ccc2c(c1)N(S(=O)(=O)Nc1cccc(-c3nc(C(C)(C)C)sc3-c3ccnc(NC4CCN(S(C)(=O)=O)CC4)n3)c1F)CC2` [Example 188, N-(3-(2-(tert-butyl)-5-(2-((1-(methylsulfonyl)-piperidin-4-yl)amino)-pyrimidin-4-yl)thiazol-4-yl)-2-fluoro-phenyl)-6-(2-(dimethylamino)-ethoxy)-indoline-1-sulfonamide] are within 1.5-fold of each other in IC50: 1.89 µM for the first, 1.66 µM for the second.

`CC(C)(C)c1nc(-c2cccc(NS(=O)(=O)N3CCC4(CCC4)C3)c2F)c(-c2ccnc(NC3CC4(C3)CS(=O)(=O)C4)n2)s1` [Example 182, N-(3-(2-(tert-butyl)-5-(2-((2,2-dioxido-2-thiaspiro[3.3]heptan-6-yl)amino)-pyrimidin-4-yl)thiazol-4-yl)-2-fluoro-phenyl)-6-azaspiro[3.4] octane-6-sulfonamide] and `CC(C)(C)c1nc(-c2cccc(NS(=O)(=O)N3CCC(F)(F)C3)c2F)c(-c2ccnc(NC3CC4(C3)CS(=O)(=O)C4)n2)s1` [Example 186, N-(3-(2-(tert-butyl)-5-(2-((2,2-dioxido-2-thiaspiro[3.3]heptan-6-yl)amino)-pyrimidin-4-yl)thiazol-4-yl)-2-fluoro-phenyl)-3,3-difluoropyrrolidine-1-sulfonamide] are within 1.5-fold of each other in IC50: 1.19 µM for the first, 1.18 µM for the second.

Compared with `CNS(=O)(=O)N1CCC(Nc2nccc(-c3sc(C(C)(C)C)nc3-c3cccc(NS(=O)(=O)N4CCc5ccc(C#N)cc54)c3F)n2)CC1` [Example 183, N-(3-(2-(tert-butyl)-5-(2-((1-(N-methyl-sulfamoyl)piperidin-4-yl)amino)-pyrimidin-4-yl)thiazol-4-yl)-2~fluoro-phenyl)-6-cyano-indoline-1-sulfonamide], `CC(C)(C)c1nc(-c2cccc(NS(=O)(=O)N3CCc4ccc(C#N)cc43)c2F)c(-c2ccnc(NC3CC4(C3)CN(S(C)(=O)=O)C4)n2)s1` [Example 200, N-(3-(2-(tert-butyl)-5-(2-((2-(methylsulfonyl)-2-azaspiro [3.3]heptan-6-yl)amino)pyrimidin-4-yl)thiazol-4-yl)-2-fluorophenyl)-6-cyanoindoline-1-sulfonamide] is 1.9-fold higher in IC50: 0.133 µM for the first, 0.247 µM for the second.

`CN(C)S(=O)(=O)Nc1cccc(-c2nc(C(C)(C)C)sc2-c2ccnc(NC3CC4(C3)CS(=O)(=O)C4)n2)c1F` [Example 184, N-(3-(2-(tert-butyl)-5-(2-((2,2-dioxido-2-thiaspiro[3.3]heptan-6-yl)amino)-pyrimidin-4-yl)thiazol-4-yl)-2-fluoro-phenyl)dimethyl-aminesulfonamide] and `CCN(C)S(=O)(=O)Nc1cccc(-c2nc(C(C)(C)C)sc2-c2ccnc(NC3CC4(C3)CS(=O)(=O)C4)n2)c1F` [Example 194, N-(3-(2-(tert-butyl)-5-(2-((2,2-dioxido-2-thiaspiro[3.3]heptan-6-yl)amino)-pyrimidin-4-yl)thiazol-4-yl)-2-fluoro-phenyl)-N-methyl-N-ethylamine-sulfonamide] are within 1.5-fold of each other in IC50: 1.54 µM for the first, 1.85 µM for the second.

Compared with `CC(C)(C)c1nc(-c2cccc(NS(=O)(=O)N3Cc4cccc(C#N)c4C3)c2F)c(-c2ccnc(NC3CCN(S(C)(=O)=O)CC3)n2)s1` [Example 185, N-(3-(2-(tert-butyl)-5-(2-((1-(methylsulfonyl)-piperidin-4-yl)amino)-pyrimidin-4-yl)thiazol-4-yl)-2-fluoro-phenyl)-4-cyanoisoindoline-2-sulfonamide], `CN(C)Cc1ccc2c(c1)CCN2S(=O)(=O)Nc1cccc(-c2nc(C(C)(C)C)sc2-c2ccnc(NC3CCN(S(C)(=O)=O)CC3)n2)c1F` [Example 189, N-(3-(2-(tert-butyl)-5-(2-((1-(methylsulfonyl)-piperidin-4-yl)amino)-pyrimidin-4-yl)thiazol-4-yl)-2-fluoro-phenyl)-5-((dimethylamino)-methyl)-indoline-1-sulfonamide] is 28-fold higher in IC50: 0.055 µM for the first, 1.55 µM for the second.

Compared with `CC(C)(C)c1nc(-c2cccc(NS(=O)(=O)N3Cc4ccncc4C3)c2F)c(-c2ccnc(NC3CC4(C3)CS(=O)(=O)C4)n2)s1` [Example 187, N-(3-(2-(tert-butyl)-5-(2-((2,2-dioxido-2-thiaspiro[3.3]heptan-6-yl)amino)-pyrimidin-4-yl)thiazol-4-yl)-2-fluoro-phenyl)-1,3-dihydro-2H-pyrrolo[3,4-c]-pyridine-2-sulfonamide], `COc1cccc2c1CN(S(=O)(=O)Nc1cccc(-c3nc(C(C)(C)C)sc3-c3ccnc(NC4CC5(C4)CS(=O)(=O)C5)n3)c1F)C2` [Example 202, N-(3-(2-(tert-butyl)-S-(2-((2,2-dioxido-2-thiaspiro[3.3]heptan-6-yl)amino)-pyrimidin-4-yl)thiazol-4-yl)-2-fluoro-phenyl)-4-methoxyisoindoline-2-sulfonamide] is 2.3-fold lower in IC50: 0.194 µM for the first, 0.0862 µM for the second.

First: CC(C)(C)c1nc(-c2cccc(NS(=O)(=O)N3CCc4ncccc43)c2F)c(-c2ccnc(NC3CC4(C3)CS(=O)(=O)C4)n2)s1 [Example 190, N-(3-(2-(tert-butyl)-5-(2-((2,2-dioxido-2-thiaspiro[3.3]heptan-6-yl)amino)-pyrimidin-4-yl)thiazol-4-yl)-2-fluoro-phenyl)-2,3-dihydro-1H-pyrrolo[3,2-b]-pyridine-1-sulfonamide]
Second: CC(C)(C)c1nc(-c2cccc(NS(=O)(=O)N3CCc4ccccc43)c2F)c(-c2ccnc(NC3CC4(C3)CS(=O)(=O)C4)n2)s1 [Example 192, N-(3-(2-(tert-butyl)-5-(2-((2,2-dioxido-2-thiaspiro[3.3]heptan-6-yl)amino)-pyrimidin-4-yl)thiazol-4-yl)-2-fluoro-phenyl)indoline-1-sulfonamide]
The IC50 of the first is 2.9-fold higher: 0.259 µM for the first, 0.0882 µM for the second.

Going from `CCN(CC)S(=O)(=O)Nc1cccc(-c2nc(C(C)(C)C)sc2-c2ccnc(NC3CC4(C3)CS(=O)(=O)C4)n2)c1F` [Example 191, N-(3-(2-(tert-butyl)-5-(2-((2,2-dioxido-2-thiaspiro[3.3]heptan-6-yl)amino)-pyrimidin-4-yl)thiazol-4-yl)-2-fluoro-phenyl)-diethylamine-sulfonamide] to `CN(C)Cc1cccc2c1CN(S(=O)(=O)Nc1cccc(-c3nc(C(C)(C)C)sc3-c3ccnc(NC4CC5(C4)CS(=O)(=O)C5)n3)c1F)C2` [Example 197, N-(3-(2-(tert-butyl)-5-(2-((2,2-dioxido-2-thiaspiro[3.3]heptan-6-yl)amino)-pyrimidin-4-yl)thiazol-4-yl)-2-fluoro-phenyl)-4-((dimethylamino)methyl)-isoindoline-2-sulfonamide], the IC50 falls from 8.62 µM to 1.07 µM (8.1-fold).

Compared with `CC(C)(C)c1nc(-c2cccc(NS(=O)(=O)N3CCc4c(C#N)cccc43)c2F)c(-c2ccnc(NC3CC4(C3)CS(=O)(=O)C4)n2)s1` [Example 193, N-(3-(2-(tert-butyl)-5-(2-((2,2-dioxido-2-thiaspiro[3.3]heptan-6-yl)amino)-pyrimidin-4-yl)thiazol-4-yl)-2-fluoro-phenyl)-4-cyanoindoline-1-sulfonamide], `CC(C)(C)c1nc(-c2cccc(NS(=O)(=O)N3CCc4cc(C#N)ccc43)c2F)c(-c2ccnc(NC3CC4(C3)CS(=O)(=O)C4)n2)s1` [Example 195, N-(3-(2-(tert-butyl)-5-(2-((2,2-dioxido-2-thiaspiro[3.3]heptan-6-yl)amino)-pyrimidin-4-yl)thiazol-4-yl)-2-fluoro-phenyl)-5-cyanoindoline-1-sulfonamide] is 2.6-fold higher in IC50: 0.125 µM for the first, 0.32 µM for the second.

`CN(C)C(=O)c1ccc2c(c1)N(S(=O)(=O)Nc1cccc(-c3nc(C(C)(C)C)sc3-c3ccnc(NC4CC5(C4)CS(=O)(=O)C5)n3)c1F)CC2` [Example 198, 1-(N-(3-(2-(tert-butyl)-5-(2-((2,2-dioxido-2-thiaspiro[3.3]heptan-6-yl)amino)pyrimidin-4-yl)thiazol-4-yl)-2-fluorophenyl)sulfamoyl)-N,N-dimethylindoline-6-carboxamide] and `CNC(=O)c1ccc2c(c1)N(S(=O)(=O)Nc1cccc(-c3nc(C(C)(C)C)sc3-c3ccnc(NC4CC5(C4)CS(=O)(=O)C5)n3)c1F)CC2` [Example 203, 1-(N-(3-(2-(tert-butyl)-5-(2-((2,2-dioxido-2-thiaspiro[3.3]heptan-6-yl)amino)pyrimidin-4-yl)thiazol-4-yl)-2-fluorophenyl)sulfamoyl)-N-methyl-indoline-6-carboxamide] are within 1.5-fold of each other in IC50: 0.667 µM for the first, 0.931 µM for the second.

First: CC(C)(C)c1nc(-c2cccc(NS(=O)(=O)N3CCC4(CC4)C3)c2F)c(-c2ccnc(NC3CC4(C3)CN(S(C)(=O)=O)C4)n2)s1 [Example 199, N-(3-(2-(tert-butyl)-5-(2-((2-(methylsulfonyl)-2-azaspiro [3.3]heptan-6-yl)amino)pyrimidin-4-yl)thiazol-4-yl)-2-fluorophenyl)-5-azaspiro [2.4]heptane-5-sulfonamide]
Second: CCOc1cccc2c1CN(S(=O)(=O)Nc1cccc(-c3nc(C(C)(C)C)sc3-c3ccnc(NC4CC5(C4)CS(=O)(=O)C5)n3)c1F)C2 [Example 204, N-(3-(2-(tert-butyl)-5-(2-((2,2-dioxido-2-thiaspiro[3.3]heptan-6-yl)amino)-pyrimidin-4-yl)thiazol-4-yl)-2-fluoro-phenyl)-4-ethoxyisoindoline-2-sulfonamide]
The IC50 of the first is higher: over 3.84 µM for the first, 0.0692 µM for the second.

Compound `CC(C)(C)c1nc(-c2cccc(NS(=O)(=O)N3Cc4cccc(C(F)(F)F)c4C3)c2F)c(-c2ccnc(NC3CC4(C3)CS(=O)(=O)C4)n2)s1` [Example 201, N-(3-(2-(tert-butyl)-5-(2-((2,2-dioxido-2-thiaspiro[3.3]heptan-6-yl)amino)-pyrimidin-4-yl)thiazol-4-yl)-2-fluorophenyl)-4-(trifluoromethyl)-isoindoline-2-sulfonamide] has an IC50 of 0.0763 µM.

Reference: US20260274833A1 (NiKang Therapeutics, Inc., priority 2022, published 2026)
